From patent publication US4918099A, “Drug, preparation and use thereof” (priority 1985, dated 1990)
Where two headings read alike, the source gives them in different places.

Tested on: platelet aggregation in diabetic human plasma
Test: Platelet aggregation in diabetic human plasma induced by ADP
Format: cell-based
Protocol: The platelet aggregation was determined by a tubimetric method in a dual-channel aggregometer, assuming that a platelet-poor plasma represented 100% aggregation and that a platelet-rich plasma represented 0% aggregation. Each aggregometer tube was charged with 40 μl of platelet-rich plasma and 50 μl of test sample solution. The mixture was incubated at 37° C. for 2 min., whereupon 50 μl of ADP solution were added. Percent inhibition of the platelet aggregation caused by the test sample solution was calculated as follows: [formula]

`Oc1ccc2c(c1)OC[C@]1(O)Cc3cc(O)c(O)cc3[C@H]21` [brazilin] was tested, and the “T/min, Aggregation (first value)” value (10^-3 M, control 78.7) was 8.75%, the “Tmax, Aggregation (first value)” value (10^-3 M, control 78.7) was 46.3% and the “Tmax, Aggregation (first value)” value (10^-4 M, control 78.7) was 70.0%. The activity at 1000 µM (Homo sapiens, Platelet, 10^-3 M, control 100, read-out: Tmax, Aggregation relative to control (second value)) was 58.8%, the inhibition at 1000 µM (Homo sapiens, Platelet, 10^-3 M, read-out: T/min, Inhibition) was 88.9% and the inhibition at 1000 µM (Homo sapiens, Platelet, 10^-3 M, read-out: Tmax, Inhibition) was 41.2%. For the same molecule, the activity at 100 µM (Homo sapiens, Platelet, 10^-4 M, control 100, read-out: Tmax, Aggregation relative to control (second value)) was 88.9%, the inhibition at 100 µM (Homo sapiens, Platelet, 10^-4 M, read-out: Tmax, Inhibition) was 11.1% and the “inhibition of the platelet aggregation” value (conclusion on Tables 12 and 13) was “considerable inhibition of the platelet aggregation”.
